Measured values: ChEMBL document CHEMBL1201862, “PubChem BioAssay data set” (2004)
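Growth conditions: 96-well plates. Treatment: test compound, 48 hours, 5 concentrations. Analysis: linear interpolation between bracketing concentrations; unreached endpoints set to highest concentration. Here, GI50 denotes the concentration required for 50% inhibition of growth.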 Activity calls are given as the source filed them. Cut-off read from the data, not from the text of the source: active = GI50 up to about 1.1 µM and inactive = higher.

Legend:
Experiment in all cases: growth of human tumour cells (NCI), 48 h
[1] = system: UACC-257
[2] = system: SR
[3] = system: XF498
[4] = system: OVCAR-3
[5] = system: OVCAR-8
[6] = system: Malme-3M
[7] = system: RXF 631
[8] = system: M14
[9] = system: SF-539
[10] = system: KM-20L2
[11] = system: LXFL 529
[12] = system: SNB-75
[13] = system: HOP-62
[14] = system: DMS-273
[15] = system: RPMI-8226
[16] = system: SK-OV-3
[17] = system: CCRF-CEM
[18] = system: A498
[19] = system: MCF7
[20] = system: NCI/ADR-RES

Row | SMILES | GI50 [1] | GI50 [2] | GI50 [3] | GI50 [4] | GI50 [5] | GI50 [6] | GI50 [7] | GI50 [8] | GI50 [9] | GI50 [10] | GI50 [11] | GI50 [12] | GI50 [13] | GI50 [14] | GI50 [15] | GI50 [16] | GI50 [17] | GI50 [18] | GI50 [19] | GI50 [20]
1 | Cc1cc2cccc(Cl)c2nc1C(=O)c1ccccc1 | 18.2 µM (inactive) | > 100 µM (inactive) | 82 µM (inactive) | > 100 µM (inactive) | 46.3 µM (inactive) | 50.5 µM (inactive) | 89.3 µM (inactive) | 76.2 µM (inactive) | > 100 µM (inactive) | > 100 µM (inactive) | > 100 µM (inactive) | 17.1 µM (inactive) | 44.1 µM (inactive) | > 100 µM (inactive) | > 100 µM (inactive) | – | – | – | – | –
2 | NC(=O)C(=O)N/N=C1/c2ccccc2CC1C1(O)C(=O)Nc2c(Cl)cc(Cl)cc21 (configuration not stated) | > 100 µM (inactive) | 70.3 µM (inactive) | > 100 µM (inactive) | > 100 µM (inactive) | > 100 µM (inactive) | > 100 µM (inactive) | – | – | > 100 µM (inactive) | > 100 µM (inactive) | – | 97.3 µM (inactive) | > 100 µM (inactive) | > 100 µM (inactive) | > 100 µM (inactive) | > 100 µM (inactive) | 61.5 µM (inactive) | > 100 µM (inactive) | – | –
3 | CCOC(=O)C1C(c2cc(OC)c(O)c(OC)c2)c2cc3c(cc2OC1(C)O)OCO3 (configuration not stated) | 61.9 µM (inactive) | – | 31 µM (inactive) | 65.3 µM (inactive) | > 100 µM (inactive) | > 100 µM (inactive) | 75.9 µM (inactive) | 74.3 µM (inactive) | > 100 µM (inactive) | 64.9 µM (inactive) | – | 16.5 µM (inactive) | 14.3 µM (inactive) | 36.9 µM (inactive) | 71.1 µM (inactive) | > 100 µM (inactive) | > 100 µM (inactive) | – | – | –
4 | CC(=O)OC1C=C(C=O)C(O)(C=O)C2(C)CCCC(C)(C)C12 (configuration not stated) | 2 µM (inactive) | – | 1.49 µM (inactive) | 0.693 µM (active) | 1.24 µM (inactive) | 0.971 µM (active) | – | – | 2.4 µM (inactive) | 2.11 µM (inactive) | – | 2.4 µM (inactive) | 6.38 µM (inactive) | 2.08 µM (inactive) | 0.519 µM (active) | 4.34 µM (inactive) | 0.238 µM (active) | 1.28 µM (inactive) | 1.89 µM (inactive) | 1.8 µM (inactive)
5 | COc1ccc(C2C(=O)C(Cl)N2Nc2nc(C)cc(O)n2)cc1OC (configuration not stated) | 40.6 µM (inactive) | 18.8 µM (inactive) | – | 10.2 µM (inactive) | 26.3 µM (inactive) | – | – | 25.8 µM (inactive) | 24 µM (inactive) | 37 µM (inactive) | 41.3 µM (inactive) | 8.13 µM (inactive) | 23.6 µM (inactive) | 22.1 µM (inactive) | 19.1 µM (inactive) | – | 5.58 µM (inactive) | – | – | –
6 | CCCCCCCCC1=CCC(CN(C)C)C1=O (configuration not stated) | 20.9 µM (inactive) | – | – | 18.3 µM (inactive) | 17.9 µM (inactive) | 17.8 µM (inactive) | – | – | 19.7 µM (inactive) | 21.9 µM (inactive) | – | 17.7 µM (inactive) | > 31.6 µM (inactive) | 18.7 µM (inactive) | 1.34 µM (inactive) | > 100 µM (inactive) | 10.6 µM (inactive) | > 43.9 µM (inactive) | 4.69 µM (inactive) | 20.5 µM (inactive)
7 | CCCOC(=O)CNC(=O)OC(C)(C)C | > 100 µM (inactive) | > 100 µM (inactive) | > 100 µM (inactive) | > 100 µM (inactive) | > 100 µM (inactive) | > 100 µM (inactive) | > 100 µM (inactive) | > 100 µM (inactive) | > 100 µM (inactive) | > 100 µM (inactive) | > 100 µM (inactive) | > 100 µM (inactive) | > 100 µM (inactive) | > 100 µM (inactive) | – | > 100 µM (inactive) | > 100 µM (inactive) | – | – | –
8 | CC(C)C1=CC2=CC[C@@H]3[C@](C)(CCC[C@@]3(C)C(=O)O)[C@H]2CC1 [ABIETIC ACID] | 56.1 µM (inactive) | > 100 µM (inactive) | 73.6 µM (inactive) | 35.7 µM (inactive) | > 56.9 µM (inactive) | > 67 µM (inactive) | 62.8 µM (inactive) | 67.9 µM (inactive) | > 70.8 µM (inactive) | 63.2 µM (inactive) | 64.3 µM (inactive) | 55.8 µM (inactive) | > 67.8 µM (inactive) | 48.1 µM (inactive) | > 46.6 µM (inactive) | > 81.7 µM (inactive) | 42.9 µM (inactive) | 49.8 µM (inactive) | – | –
9 | CC(C)=CCc1c(O)ccc2ccc(=O)oc12 [OSTHENOL] | 33 µM (inactive) | – | – | 60.1 µM (inactive) | 53 µM (inactive) | 38.2 µM (inactive) | – | – | 24 µM (inactive) | > 100 µM (inactive) | – | 54.5 µM (inactive) | – | 63.7 µM (inactive) | 26.7 µM (inactive) | > 100 µM (inactive) | 33.9 µM (inactive) | 54.8 µM (inactive) | 34.9 µM (inactive) | 20.9 µM (inactive)
